Experimental data as given in paper PMC12362431, “Kinetic Dissection of the Reaction of Human GDP-L-Fucose Synthase” (ACS Catalysis, 2025).
Where two headings read alike, the source gives them in different places.

Columns and labels:
wild-type GFS [1] = molecular target: T1, wild-type GFS (Homo sapiens, UniProt Q13630); assay: Global simulation fitting of mechanism b to transient stopped-flow curves; format: biochemical; conditions: release from the ternary product complex enzyme/NADP+/GDP-L-fucose
T1 construct: made in house; host or cells: E. coli Rosetta 2(DE3)
Procedure: Spectrofluorometric analysis of ligand binding
Fluorescence titrations of wild-type GFS in the binding of coenzyme, substrate and/or product were performed using a fluorescence spectrophotometer F-4500 (Hitachi, Ltd., Tokyo, Japan).
Emission spectra were recorded in the range 300–500 nm at 1200 nm/min with the excitation […]
25 mM NaCl, pH 8.0) without agitation (25 °C). […] The resulting fluorescence signals were plotted versus ligands concentrations and the data were fitted to a hyperbol ic equation (Eq. S6) to obtain the Kd value (Figure S8, S9; Table S3): […]
where F is the fluorescence emission, [L] is concentration of ligand, F1 is the initial and F2 is the final fluorescence signal, [E] is the enzyme subunit concentration. […]
the fluorescence measurements. […]
Standard errors for the fitted rate constants were estimated as standard deviations based on the variability observed during global fitting . The goodness of fit to the model was assessed by confidence contour analysis, in which all parameters, except for k-1, were well constrained by the data. […]

[2] = molecular target: enzyme/NADP+ (GFS/NADP+ complex) (Homo sapiens, UniProt Q13630); assay: Fluorescence titration, equilibrium binding (quenching of intrinsic protein fluorescence)
GFS complex with NADPH4 = molecular target: T2, GFS complex with NADPH4 (Homo sapiens, UniProt Q13630); assay: Stopped-flow transient kinetic analysis of binding of GDP-L-fucose (fluorescence quenching)
T2 construct: made in house; host or cells: E. coli Rosetta 2(DE3)

GFS [3] = molecular target: GFS; design: method as in not given; conditions: earlier studies of GFS, source organism not given; ref not given; cited from earlier work
[4] = molecular target: enzyme/NADPH4 (GFS/NADPH4 complex) (Homo sapiens, UniProt Q13630); assay: Fluorescence titration, equilibrium binding (quenching of intrinsic protein fluorescence)
[5] = molecular target: apo GFS (ligand-free wild-type GFS) (Homo sapiens, UniProt Q13630); assay: as above; conditions: for Kd: apo GFS 0.40 μM, 10 mM Tris, 25 mM NaCl, pH 8.0, 25 °C
wild-type GFS [6] = molecular target: T1, wild-type GFS; assay: Steady-state initial-rate kinetics and primary KIE (NADPH consumption, absorbance at 340 nm); format: biochemical
GFS variant H186K = molecular target: T3, GFS variant H186K (Homo sapiens, UniProt Q13630, H186K); assay: as above; format: biochemical
T3 construct: made in house; host or cells: E. coli Rosetta 2(DE3)

GFS variant Y143F = molecular target: T4, GFS variant Y143F (Homo sapiens, UniProt Q13630, Y143F); assay: as above; format: biochemical
T4 construct: made in house; host or cells: E. coli Rosetta 2(DE3)

GFS variant C116S = molecular target: T5, GFS variant C116S (Homo sapiens, UniProt Q13630, C116S); assay: as above; format: biochemical; conditions: deuterated vs unlabeled substrate/coenzyme, pH 8.0, 37 °C, in 1/s
T5 construct: made in house; host or cells: E. coli Rosetta 2(DE3)

GFS [7] = tested on: GFS; design: method as in not given; conditions: earlier studies of GFS, source organism not given; ref not given; cited from earlier work; remark: listed apart in the source
[8] = nonlinear fit of kobs with eq S15
[9] = deuterated vs unlabeled substrate/coenzyme, pH 8.0, 37 °C, in 1/s
[10] = varied substrate 3, pH 8.0, 37 °C

Chain of apo GFS (ligand-free wild-type GFS) (Q13630 8-321): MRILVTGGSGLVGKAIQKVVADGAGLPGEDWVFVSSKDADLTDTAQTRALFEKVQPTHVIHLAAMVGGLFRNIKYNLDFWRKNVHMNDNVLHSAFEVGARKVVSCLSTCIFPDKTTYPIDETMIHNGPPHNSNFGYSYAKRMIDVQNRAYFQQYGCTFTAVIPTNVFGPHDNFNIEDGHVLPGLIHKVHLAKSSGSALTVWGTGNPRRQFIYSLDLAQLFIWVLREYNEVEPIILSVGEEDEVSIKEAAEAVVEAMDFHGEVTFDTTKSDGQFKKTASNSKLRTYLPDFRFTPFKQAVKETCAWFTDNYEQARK
T2 sequence (Q13630 8-321, one chain of several): as the sequence (Q13630 8-321) above
T1 sequence (Q13630 8-321): as above
Chain of enzyme/NADPH4 (GFS/NADPH4 complex) (Q13630 8-321, one chain of several): as the sequence (Q13630 8-321) above
T4 sequence (Q13630 whole entry Y143F): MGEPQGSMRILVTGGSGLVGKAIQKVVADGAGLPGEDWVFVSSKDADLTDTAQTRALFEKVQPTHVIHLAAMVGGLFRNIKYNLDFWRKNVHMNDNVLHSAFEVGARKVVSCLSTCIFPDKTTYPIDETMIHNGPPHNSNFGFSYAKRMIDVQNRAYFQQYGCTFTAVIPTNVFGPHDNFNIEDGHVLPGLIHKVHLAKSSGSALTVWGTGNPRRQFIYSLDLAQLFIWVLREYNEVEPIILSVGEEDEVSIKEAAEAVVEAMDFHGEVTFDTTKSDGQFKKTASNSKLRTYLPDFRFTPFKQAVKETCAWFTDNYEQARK
T3 sequence (Q13630 whole entry H186K): as the sequence (Q13630 whole entry Y143F) above, with F143Y, H186K counted along it
Chain of enzyme/NADP+ (GFS/NADP+ complex) (Q13630 8-321, one chain of several): as the sequence (Q13630 8-321) above
T5 sequence (Q13630 whole entry C116S): as the sequence (Q13630 whole entry Y143F) above, with C116S, F143Y counted along it

Question: Which “rate constant for the release” value (wild-type GFS [1]) does the source give for CC1OC(OP(=O)(O)OP(=O)(O)OCC2OC(n3cnc4c(=O)[nH]c(N)nc43)C(O)C2O)C(O)C(O)C1O [1a, GDP-L-fucose] here?
Answer: Its value is 12 s^–1.

Question: And the Kd [2]?
Answer: Its Kd is 13 ± 4 µM.

Question: And the koff (GFS complex with NADPH4; global simulation fit, lower bound only, read-out: koff (association step))?
Answer: Its koff is ≥ 11 s⁻¹.

Question: What about the kon (GFS complex with NADPH4; global simulation fit, lower bound only, read-out: kon (association step)) of the same molecule?
Answer: Its kon is ≥ 2e+06 M⁻¹ s⁻¹.

Question: And the “k′1” value (GFS complex with NADPH4; global simulation fit, range 0.3–0.8 s^–1)?
Answer: The value was 0.6 s^–1.

Question: And the “k′–1” value (GFS complex with NADPH4; global simulation fit, range 0.5–1.4 s^–1)?
Answer: The value was 0.9 s^–1.

Question: What about the Kd (GFS complex with NADPH4; global simulation fit, range 3–12 μM, read-out: Kd (two-step binding)) of the same molecule?
Answer: The Kd was 7 µM.

Question: And the “k′1 (forward conformational change)” value (GFS complex with NADPH4; [8])?
Answer: Its value is 0.6 ± 0.1 s⁻¹.

Question: What about the “k′–1 (reverse conformational change, GDP-L-fucose release rate)” value (GFS complex with NADPH4; [8]) of the same molecule?
Answer: Its value is 0.5 ± 0.1 s^–1.

Question: What about the Kd (GFS complex with NADPH4; nonlinear fit of kobs with eq S15, GFS 2.0 μM, NADPH4 15.0 μM, pH 8.0, 37 °C, read-out: Kd (encounter complex, two-step binding)) of the same molecule?
Answer: Its Kd is 4 ± 2 µM.

Question: What about the Ki (GFS [3]) of the same molecule?
Answer: Its Ki is 55.3 µM.

Question: What about the Kd [4] of the same molecule?
Answer: Its Kd is 1.1 ± 0.2 µM.

Question: And the “tighter binding to enzyme-NADPH4 than to enzyme-NADP+” value ([4]; ratio of Kd values)?
Answer: Its value is ~12 fold.

Question: With Nc1nc2c(ncn2[C@@H]2O[C@H](COP(=O)(O)OP(=O)(O)O)[C@@H](O)[C@H]2O)c(=O)[nH]1 [GDP, guanosine 5′-diphosphate] as the molecule, how does the Ki (GFS [3]) read?
Answer: The Ki was 60.5 µM.

Question: With NC(=O)c1ccc[n+]([C@@H]2O[C@H](COP(=O)([O-])OP(=O)(O)OC[C@H]3O[C@@H](n4cnc5c(N)ncnc54)[C@H](OP(=O)(O)O)[C@@H]3O)[C@@H](O)[C@H]2O)c1 [NADP+] as the molecule, how does the “rate constant for the release” value (wild-type GFS [1]) read?
Answer: The value was 26 s^–1.

Question: What about the Kd [5] of the same molecule?
Answer: The Kd was 8 ± 2 µM.

Question: Which Kd [5] does the source give for NC(=O)C1=CN([C@@H]2O[C@H](COP(=O)(O)OP(=O)(O)OC[C@H]3O[C@@H](n4cnc5c(N)ncnc54)[C@H](OP(=O)(O)O)[C@@H]3O)[C@@H](O)[C@H]2O)CCC1 [NADPH4, 1″,4″,5″,6″-tetrahydro-NADPH] here?
Answer: The Kd was 0.3 ± 0.1 µM.

Question: And the “tighter binding to the free GFS than NADP+” value ([5]; ratio of Kd values)?
Answer: The value was 27 fold.

Question: For NC(=O)C1=CN([C@@H]2O[C@H](COP(=O)(O)OP(=O)(O)OC[C@H]3O[C@@H](n4cnc5c(N)ncnc54)[C@H](OP(=O)(O)O)[C@@H]3O)[C@@H](O)[C@H]2O)C=CC1 [NADPH], which Km (wild-type GFS [6]; varied NADPH, substrate 3 100 μM, pH 8.0, 37 °C) is on record?
Answer: The Km was 0.75 ± 0.03 µM.

Question: What does the source list for [2H][C@@H]1C=CN([C@@H]2O[C@H](COP(=O)(O)OP(=O)(O)OC[C@H]3O[C@@H](n4cnc5c(N)ncnc54)[C@H](OP(=O)(O)O)[C@@H]3O)[C@@H](O)[C@H]2O)C=C1C(N)=O [[4S-^2H]-NADPH]?
Answer: kinetic isotope effect on kcat (Dkcat) (wild-type GFS [6]; [9]): 1.03 ± 0.05; kinetic isotope effect on kcat/Km, Dkcat/Km^NADPH (wild-type GFS [6]; varied coenzyme, substrate 3 100 μM, pH 8.0, 37 °C): 1.6 ± 0.2; kinetic isotope effect on kcat/Km, Dkcat/Km^3 (wild-type GFS [6]; [10]): 1.4 ± 0.4; kinetic isotope effect on kcat (Dkcat) (GFS variant H186K; [9]): 1.12 ± 0.08; kinetic isotope effect on kcat/Km, Dkcat/Km^3 (GFS variant H186K; [10]): 1.1 ± 0.5; kinetic isotope effect on kcat (Dkcat) (GFS variant Y143F; [9]): 3.9 ± 0.3; kinetic isotope effect on kcat/Km, Dkcat/Km^3 (GFS variant Y143F; [10]): 4 ± 1; kinetic isotope effect on kcat (Dkcat) (GFS variant C116S): 1.0 ± 0.2; KIE on the enzymatic rate (GFS [7]): 1.4
